Results published in patent publication US11311542B2, “Inhibitors of cyclin dependent kinase 7 (CDK7)” (Syros Pharmaceuticals, Inc., priority 2018, dated 2022).

Assays:
COV318 cells = assay: Inhibition of cell proliferation (CyQUANT Direct), COV318; format: cell-based, human; conditions: Homo sapiens, COV318, 72-hour
Description: (§1) HCC70 and MB453 cells are cell lines derived from human triple negative breast cancer COV318 and COV504 cells are cell lines derived from human ovarian cancer. Representative compounds of the invention were tested at different concentrations (from 4 μM to 126.4 pM; 0.5 log serial dilutions) for their ability to inhibit the proliferation of each of these cell lines. Known CDK inhibitors dinaciclib or N-((1S,3R)-3-((5-chloro-4-(1H-indol-3-yl) pyrimidin-2-yl)amino)cyclohexyl)-5-((E)-4-(dimethylamino)but-2-enamido)picolinamide and triptolide were used as positive controls. Cells were seeded at approximately 2,000 cells/well and grown in ATCC-formulated RPMI-1640 Medium (ATCC 30-2001)+10% FBS. The cells were cultured at 37° C. in a humidified chamber in the presence of 5% CO2. Proliferation assays were conducted over a 72-hour time period. CyQUANT® Direct Cell Proliferation Assay (Life Technologies, Chicago, Ill. USA) was used to assess the anti-proliferative effects of the compounds following manufacturer's directions and utilizing the reagents supplied with the CyQUANT® Direct Cell kit.

COV504 cells = assay: Inhibition of cell proliferation (CyQUANT Direct), COV504; format: cell-based, human; conditions: Homo sapiens, COV504, 72-hour
Description: as §1

CDK2/Cyclin E1 complex = CDK2/Cyclin E1 complex (Homo sapiens, UniProt P24941); assay: CDK2 kinase inhibition assay (Caliper/LabChip EZ Reader)
Description: (§2) Compounds described herein were assayed for inhibition of CDK7, CDK9, CDK12, and CDK2 activity at Biortus Biosciences (Jiangyin, Jiangsu Province, P.R. of China) using kinase assays for each CDK developed with a Caliper/LabChip EZ Reader (Perkin Elmer, Waltham, Mass.).
(§3) Furthermore, the CDK9 inhibition assay used CDK9/Cyclin T1 complex (8 nM) and “5-FAM-CDK9tide” peptide substrate (2 μM, synthesized fluorophore-labeled peptide with the following sequence: 5-FAM-GSRTPMY-NH2 (SEQ ID NO:2) where 5-FAM is defined above and NH2 signifies a C-terminal amide) with 10 mM MgCl2 in the buffer composition listed above. The CDK12 inhibition assay used CDK12 (aa686-1082)/Cyclin K complex (50 nM) and “5-FAM-CDK9tide” (2 μM) as defined above, with 2 mM MgCl2 in the buffer composition above. Additionally, the CDK2 inhibition assay used CDK2/Cyclin E1 complex (0.5 nM) and “5-FAM-CDK7tide” (2 μM; defined above) with 2 mM MgCl2 in the buffer composition above.
(§4) The incubation period at 27° C. for each CDK inhibition assay was chosen such that the fraction of phosphorylated peptide product produced in each assay, relative to the total peptide concentration, was approximately 20% (±5%) for the uninhibited kinase (35 min. for CDK7, 35 min. for CDK2, 3 hr. for CDK12, 15 min. for CDK9).

MB453 cells = assay: Inhibition of cell proliferation (CyQUANT Direct), MB453; format: cell-based, human; conditions: Homo sapiens, MB453, 72-hour
Description: as §1

CDK9/Cyclin T1 complex = CDK9/Cyclin T1 complex (Homo sapiens, UniProt P50750); assay: CDK9 kinase inhibition assay (Caliper/LabChip EZ Reader)
HCC70 cells = assay: Inhibition of cell proliferation (CyQUANT Direct), HCC70; format: cell-based, human; conditions: Homo sapiens, HCC70, 72-hour
Description: as §1

[1] = biological target: CDK7/Cyclin H/MAT1 complex (Homo sapiens, UniProt P50613); assay: CDK7 kinase inhibition assay (Caliper/LabChip EZ Reader)
[2] = biological target: CDK12 (aa686-1082)/Cyclin K complex (Homo sapiens, UniProt Q9NYV4); assay: CDK12 kinase inhibition assay (Caliper/LabChip EZ Reader)
Chain of CDK12 (aa686-1082)/Cyclin K complex (Q9NYV4 686-1082): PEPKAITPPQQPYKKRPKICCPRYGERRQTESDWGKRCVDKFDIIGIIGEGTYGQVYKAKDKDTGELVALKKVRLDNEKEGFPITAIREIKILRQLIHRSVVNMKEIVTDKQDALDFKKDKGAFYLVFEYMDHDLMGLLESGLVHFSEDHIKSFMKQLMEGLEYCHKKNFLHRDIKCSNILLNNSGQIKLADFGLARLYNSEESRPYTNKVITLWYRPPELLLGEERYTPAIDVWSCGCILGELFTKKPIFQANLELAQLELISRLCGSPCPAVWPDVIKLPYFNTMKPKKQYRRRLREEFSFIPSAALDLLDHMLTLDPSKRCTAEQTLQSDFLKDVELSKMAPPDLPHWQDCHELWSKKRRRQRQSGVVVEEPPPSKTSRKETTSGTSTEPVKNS
Chain of CDK12 (aa686-1082)/Cyclin K complex (O75909 whole entry partner, the tested form may be a part): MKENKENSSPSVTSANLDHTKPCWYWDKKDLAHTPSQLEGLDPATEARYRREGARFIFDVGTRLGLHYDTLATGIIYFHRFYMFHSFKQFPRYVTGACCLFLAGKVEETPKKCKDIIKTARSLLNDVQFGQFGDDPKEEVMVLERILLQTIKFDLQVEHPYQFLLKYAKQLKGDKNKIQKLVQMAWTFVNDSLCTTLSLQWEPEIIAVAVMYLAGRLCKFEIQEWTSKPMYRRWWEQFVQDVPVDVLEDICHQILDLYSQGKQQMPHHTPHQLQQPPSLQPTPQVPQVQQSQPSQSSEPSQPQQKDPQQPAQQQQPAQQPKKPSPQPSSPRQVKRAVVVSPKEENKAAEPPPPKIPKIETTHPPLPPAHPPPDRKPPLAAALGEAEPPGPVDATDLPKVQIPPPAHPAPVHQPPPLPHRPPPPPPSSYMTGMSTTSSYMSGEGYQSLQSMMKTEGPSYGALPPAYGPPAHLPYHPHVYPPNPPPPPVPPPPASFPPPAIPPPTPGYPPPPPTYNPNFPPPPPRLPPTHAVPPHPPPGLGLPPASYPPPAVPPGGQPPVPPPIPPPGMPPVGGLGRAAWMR
Description: as §2, §3, §4

Chain of CDK7/Cyclin H/MAT1 complex (P50613 whole entry, the tested form may be a part): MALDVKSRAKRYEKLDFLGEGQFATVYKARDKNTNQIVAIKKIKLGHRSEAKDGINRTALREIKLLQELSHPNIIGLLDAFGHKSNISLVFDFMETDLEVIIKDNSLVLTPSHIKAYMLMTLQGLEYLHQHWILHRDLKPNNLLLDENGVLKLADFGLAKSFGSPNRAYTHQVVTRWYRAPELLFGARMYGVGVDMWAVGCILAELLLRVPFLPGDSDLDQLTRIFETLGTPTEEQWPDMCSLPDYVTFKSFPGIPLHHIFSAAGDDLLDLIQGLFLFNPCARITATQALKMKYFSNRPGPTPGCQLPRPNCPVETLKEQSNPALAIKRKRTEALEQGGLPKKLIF
Chain of CDK7/Cyclin H/MAT1 complex (P51946 whole entry partner, the tested form may be a part): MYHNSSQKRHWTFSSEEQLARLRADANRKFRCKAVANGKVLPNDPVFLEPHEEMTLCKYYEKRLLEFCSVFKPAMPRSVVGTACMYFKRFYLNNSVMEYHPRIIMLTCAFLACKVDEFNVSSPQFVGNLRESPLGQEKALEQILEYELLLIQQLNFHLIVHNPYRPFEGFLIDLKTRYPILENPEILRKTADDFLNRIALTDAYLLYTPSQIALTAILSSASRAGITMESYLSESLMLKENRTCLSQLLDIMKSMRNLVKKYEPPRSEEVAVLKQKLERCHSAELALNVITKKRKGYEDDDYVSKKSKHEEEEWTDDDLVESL
Chain of CDK7/Cyclin H/MAT1 complex (P51948 whole entry partner, the tested form may be a part): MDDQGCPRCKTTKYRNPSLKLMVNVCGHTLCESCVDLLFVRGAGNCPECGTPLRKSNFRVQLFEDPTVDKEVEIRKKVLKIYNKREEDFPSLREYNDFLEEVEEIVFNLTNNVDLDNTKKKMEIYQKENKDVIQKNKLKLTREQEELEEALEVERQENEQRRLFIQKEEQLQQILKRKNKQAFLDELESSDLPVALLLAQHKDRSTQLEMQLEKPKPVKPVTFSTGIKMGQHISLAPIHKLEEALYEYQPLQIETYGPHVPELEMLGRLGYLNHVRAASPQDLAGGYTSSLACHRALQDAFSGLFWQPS
Chain of CDK9/Cyclin T1 complex (P50750 whole entry): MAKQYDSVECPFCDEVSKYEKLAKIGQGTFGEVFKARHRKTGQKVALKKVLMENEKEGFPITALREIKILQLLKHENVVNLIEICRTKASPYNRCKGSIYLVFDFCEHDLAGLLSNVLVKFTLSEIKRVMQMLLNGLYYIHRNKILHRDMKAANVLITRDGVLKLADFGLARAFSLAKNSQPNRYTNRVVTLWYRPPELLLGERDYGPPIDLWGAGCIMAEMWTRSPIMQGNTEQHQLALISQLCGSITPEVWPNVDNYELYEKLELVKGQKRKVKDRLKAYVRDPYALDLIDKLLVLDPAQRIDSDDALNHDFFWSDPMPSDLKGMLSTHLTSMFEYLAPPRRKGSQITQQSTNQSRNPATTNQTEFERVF
Chain of CDK9/Cyclin T1 complex (O60563 whole entry partner): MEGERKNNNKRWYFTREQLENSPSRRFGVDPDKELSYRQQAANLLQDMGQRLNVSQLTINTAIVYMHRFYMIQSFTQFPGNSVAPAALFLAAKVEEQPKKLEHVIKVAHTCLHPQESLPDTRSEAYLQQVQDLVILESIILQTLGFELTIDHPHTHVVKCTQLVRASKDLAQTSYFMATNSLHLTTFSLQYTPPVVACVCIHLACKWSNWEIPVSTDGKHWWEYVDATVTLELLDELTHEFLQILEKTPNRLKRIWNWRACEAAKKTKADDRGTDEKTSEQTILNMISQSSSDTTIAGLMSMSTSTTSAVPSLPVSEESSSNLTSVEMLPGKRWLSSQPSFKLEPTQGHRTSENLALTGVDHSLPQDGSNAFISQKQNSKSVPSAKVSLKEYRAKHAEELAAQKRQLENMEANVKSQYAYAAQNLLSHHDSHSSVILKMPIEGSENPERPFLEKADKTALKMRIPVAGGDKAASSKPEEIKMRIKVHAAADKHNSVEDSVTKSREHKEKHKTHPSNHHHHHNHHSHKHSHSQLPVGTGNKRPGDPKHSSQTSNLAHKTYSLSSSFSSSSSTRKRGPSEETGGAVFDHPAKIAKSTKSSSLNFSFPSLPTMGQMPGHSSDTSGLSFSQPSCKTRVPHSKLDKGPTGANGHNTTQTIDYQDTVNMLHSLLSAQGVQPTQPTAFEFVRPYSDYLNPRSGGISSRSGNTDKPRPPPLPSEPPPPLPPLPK

| Structure (SMILES) | IC50 (COV318 cells) [nM] | IC50 (COV504 cells) [nM] | IC50 (CDK2/Cyclin E1 complex) [nM] | IC50 (MB453 cells) [nM] | IC50 (CDK9/Cyclin T1 complex) [nM] | IC50 (HCC70 cells) [nM] | IC50 [1] [nM] | IC50 [2] [nM] |
| --- | --- | --- | --- | --- | --- | --- | --- | --- |
| Cc1noc(C)c1-c1ccc2c(-c3nc(N[C@H]4CCC(C)(C)NC4)ncc3C(F)(F)F)c[nH]c2n1 [Compound 116] | < 100 | < 100 | > 500 | < 100 | > 500 | < 100 | < 30 | > 500 |
| Cc1noc(C)c1-c1ccc2c(-c3nc(N[C@H]4CCCNC4)ncc3C(F)(F)F)n[nH]c2n1 [Compound 118, 4-[6-(3,5-dimethylisoxazol-4-yl)-1H-pyrazolo-[3,4-b]-pyridin-3-yl]-N-[(3S)-3-piperidyl]-5-(trifluoromethyl)pyrimidin-2-amine] | 100 to 500 | < 100 | > 500 | < 100 | > 500 | < 100 | < 30 | > 500 |
| Cc1noc(C)c1-c1ccc2c(-c3nc(N[C@@H]4CNC[C@H](C(=O)N(C)C)C4)ncc3C(F)(F)F)c[nH]c2n1 [Compound 119, (3R,5S)-5-[[4-[6-(3,5-dimethylisoxazol-4-yl)-1H-pyrrolo[2,3-b]pyridin-3-yl]-5-(trifluoromethyl)pyrimidin-2-yl]amino]-N,N-dimethyl-piperidine-3-carboxamide] | > 1000 | < 100 | > 500 | < 100 | > 500 | < 100 | < 30 | > 500 |
| CNC(=O)[C@H]1CNC[C@@H](Nc2ncc(C(F)(F)F)c(-c3c[nH]c4nc(-c5c(C)noc5C)ccc34)n2)C1 [Compound 120] | 500 to 1000 | 100 to 500 | > 500 | < 100 | > 500 | 100 to 500 | < 30 | > 500 |
| Cc1noc(-c2ccc3c(-c4nc(N[C@H]5CCCNC5)ncc4C(F)(F)F)c[nH]c3c2)n1 [Compound 121, 4-[6-(3-methyl-1,2,4-oxadiazol-5-yl)-1H-indol-3-yl]-N-[(3S)-3-piperidyl]-5 (trifluoromethyl)pyrimidin-2-amine] | 100 to 500 | < 100 | > 500 | < 100 | > 500 | 100 to 500 | < 30 | > 500 |
| Cn1nnnc1-c1ccc2c(-c3nc(N[C@H]4CCCNC4)ncc3C(F)(F)F)c[nH]c2c1 [Compound 122, 4-[6-(1-methyltetrazol-5-yl)-1Hindol-3-yl]-N-[(3S)-3-piperidyl]-5-(trifluoromethyl)pyrimidin-2-amine] | > 1000 | < 100 | > 500 | < 100 | > 500 | 100 to 500 | < 30 | > 500 |
| Cc1nnc(-c2ccc3c(-c4nc(N[C@H]5CCCNC5)ncc4C(F)(F)F)c[nH]c3c2)s1 [Compound 123] | 100 to 500 | < 100 | > 500 | < 100 | > 500 | 100 to 500 | < 30 | > 500 |
| Cc1noc(C)c1-c1ccc2c(-c3nc(N[C@H]4CC[C@H](C)NC4)ncc3C(F)(F)F)c[nH]c2n1 [Compound 124, 4-[6-(3,5-dimethylisoxazol-4-yl)-1H-pyrrolo-[2,3-b]-pyridin-3-yl]-N-[(3S,6S)-6-methyl-3-piperidyl]-5-(trifluoromethyl)pyrimidin-2-amine] | < 100 | < 100 | > 500 | < 100 | > 500 | < 100 | < 30 | > 500 |
| Cc1noc(C)c1-c1ccc2c(-c3nc(N[C@@H]4CC[C@@H](C)NC4)ncc3C(F)(F)F)c[nH]c2n1 [Compound 125, 4-[6-(3,5-dimethylisoxazol-4-yl)-1H-pyrrolo-[2,3-b]-pyridin-3-yl]-N-[(3R,6R)-6-methyl-3-piperidyl]-5-(trifluoromethyl)pyrimidin-2-amine] | 100 to 500 | < 100 | > 500 | < 100 | > 500 | 100 to 500 | < 30 | > 500 |
| Cn1nncc1-c1ccc2c(-c3nc(N[C@H]4CCCNC4)ncc3C(F)(F)F)c[nH]c2c1 [Compound 126] | 100 to 500 | < 100 | > 500 | < 100 | > 500 | < 100 | < 30 | > 500 |
| Cc1nscc1-c1ccc2c(-c3nc(N[C@H]4CCCNC4)ncc3C(F)(F)F)c[nH]c2c1 [Compound 128] | 100 to 500 | < 100 | > 500 | < 100 | > 500 | < 100 | < 30 | > 500 |
| Cc1nc(-c2ccc3c(-c4nc(N[C@H]5CCCNC5)ncc4C(F)(F)F)c[nH]c3c2)no1 [Compound 129, 4-[6-(5-methyl-1,2,4-oxadiazol-3-yl)-1H-indol-3-yl]-N-[(3S)-3-piperidyl]-5-(trifluoromethyl)pyrimidin-2-amine] | < 100 | < 100 | > 500 | < 100 | > 500 | < 100 | < 30 | > 500 |
| Cc1nsc(-c2ccc3c(-c4nc(N[C@H]5CCCNC5)ncc4C(F)(F)F)c[nH]c3c2)n1 [Compound 130] | 100 to 500 | 100 to 500 | > 500 | 100 to 500 | > 500 | 100 to 500 | < 30 | > 500 |
| CO[C@H]1CNC[C@@H](Nc2ncc(C(F)(F)F)c(-c3c[nH]c4cc(-c5c(C)noc5C)ccc34)n2)C1 [Compound 131] | 100 to 500 | < 100 | > 500 | < 100 | > 500 | 100 to 500 | < 30 | > 500 |
| Cc1nocc1-c1ccc2c(-c3nc(N[C@H]4CCCNC4)ncc3C(F)(F)F)c[nH]c2n1 [Compound 132] | < 100 | < 100 | > 500 | < 100 | > 500 | < 100 | < 30 | > 500 |
| Cc1noc(C)c1-c1ccc2c(-c3nc(N[C@@H]4CNC[C@H](O)C4)ncc3C(F)(F)F)c[nH]c2n1 [Compound 133, (3R,5S)-5-[[4-[6-(3,5-dimethylisoxazol-4-yl)-1H-pyrrolo[2,3-b]pyridin-3-yl]-5-(trifluoromethyl)pyrimidin-2-yl]amino]piperidin-3-ol] | 100 to 500 | < 100 | > 500 | < 100 | > 500 | < 100 | < 30 | > 500 |
| Cc1noc(C)c1-c1cc2[nH]cc(-c3nc(N[C@H]4CCCNC4)ncc3C(F)(F)F)c2cc1F [Compound 134, 4-(6-(3,5-dimethylisoxazol-4-yl)-5-fluoro-1H-indol-3-yl)-N—((S)-piperidin-3-yl)-5-(trifluoromethyl)pyrimidin-2-amine] | < 100 | < 100 | > 500 | < 100 | > 500 | < 100 | < 30 | > 500 |
| Cc1noc(-c2ccc3c(-c4nc(N[C@H]5CCCNC5)ncc4C(F)(F)F)c[nH]c3n2)n1 [Compound 136, 4-[6-(3-methyl-1,2,4-oxadiazol-5-yl)-1H-pyrrolo[2,3-b]pyridin-3-yl]-N-[(3S)-3-piperidyl]-5-(trifluoromethyl)pyrimidin-2-amine] | > 1000 | < 100 | > 500 | < 100 | > 500 | < 100 | < 30 | > 500 |
| CC1(C)CNC[C@@H](Nc2ncc(C(F)(F)F)c(-c3c[nH]c4nc(-c5nccs5)ccc34)n2)C1 [Compound 137, N-[(3S)-5,5-dimethyl-3-piperidyl]-4-(6-thiazol-2-yl-1H-pyrrolo[2,3-b]pyridin-3-yl)-5-(trifluoromethyl)pyrimidin-2-amine] | < 100 | < 100 | > 500 | < 100 | > 500 | < 100 | < 30 | > 500 |
| Cc1nc(-c2ccc3c(-c4nc(N[C@H]5CCCNC5)ncc4C(F)(F)F)c[nH]c3n2)no1 [Compound 139, 4-[6-(5-methyl-1,2,4-oxadiazol-3-yl)-1H-pyrrolo[2,3-b]pyridin-3-yl]-N-[(3S)-3-piperidyl]-5-(trifluoromethyl)pyrimidin-2-amine] | > 1000 | < 100 | > 500 | < 100 | > 500 | < 100 | < 30 | > 500 |
